One data set concerns the target T1, KRAS (G12V)::SOS1 (Homo sapiens, UniProt P01116, C118S/G12V).
T1 construct: KRAS (G12V) 1-169, N-terminal 6His-tag for purification, cleaved off; 6His-tag (N, cleaved yes); TEV cleavage site; made in house
Put plainly: KRAS::SOS1 AlphaScreen binding assay, KRAS G12V. An excerpt: This assay can be used to examine the potency with which compounds according to the invention binding to (mutated) KRAS inhibit the protein-protein interaction between SOS1 and (mutated) KRAS e.g., KRAS WT, KRAS G12C, KRAS G12D, KRAS G12V, KRAS G13D. […] Low IC50 values in this assay setting are indicative of strong inhibition of protein-protein interaction between SOS1 and KRAS:
These assays measure the inhibitory effect of compounds on KRAS mutant protein-protein interactions using the Alpha Screen technology by Perkin Elmer
The following (mutant) enzyme forms of KRAS and interacting proteins are used in these assays at the given concentrations: • KRAS (G12D) 1-169, N-terminal 6His-tag, C-terminal avi-tag (Xtal BioStructures, Inc.); final assay concentration 10 nM and SOS1 564-1049, N-terminal 229 GST-tag, TEV cleavage site (Viva Biotech Ltd); final assay concentration 5 nM; • KRAS (G12C) 1-169, N-terminal 6His-tag for purification, cleaved off, C-terminal avi-tag, biotinylated, mutations: C51S, C80L, C118S (in house); final assay concentration 7.5 nM and SOS1 564-1049, N-terminal 229 GST-tag, TEV cleavage site (Viva Biotech Ltd); final assay concentration 5 nM; • KRAS (G12V) 1-169, N-terminal 6His-tag for purification, cleaved off, C-terminal avi-tag, biotinylated, TEV cleavage site, mutation: C118S, GDP loaded (in house); final assay concentration 10 nM and SOS1 564-1049, N-terminal 229 GST-tag, TEV cleavage site (Viva Biotech Ltd); final assay concentration 10 nM; • KRAS (G13D) 1-169, N-terminal 6His-tag for purification, cleaved off, C-terminal avi-tag, biotinylated, TEV cleavage site, mutation: C118S, GDP loaded (in house); final assay concentration 10 nM and SOS1 564-1049, N-terminal 229 GST-tag, TEV cleavage site (Viva Biotech Ltd); final assay concentration 10 nM; • KRAS (WT) 1-169, N-terminal 6His-tag for purification, cleaved off, C-terminal avi-tag, biotinylated, TEV cleavage site, mutation: C118S, GDP loaded (in house); final assay concentration 10 nM and SOS1 564-1049, N-terminal 229 GST-tag, TEV cleavage site (Viva Biotech Ltd); final assay concentration 10 nM.
Test compounds dissolved in DMSO are dispensed onto assay plates (Proxiplate 384 PLUS, white, PerkinElmer; 6008289) using an Access Labcyte Workstation with the Labcyte Echo 55×. For the chosen highest assay concentration of 100 μM, 150 nL of compound solution are transferred from a 10 mM DMSO compound stock solution. A series of eleven fivefold dilutions per compound are transferred to the assay plate, compound dilutions are tested in duplicates. DMSO are added as backfill to a total volume of 150 nL.
The assays run on a fully automated robotic system in a darkened room below 100 Lux. To 150 nl of compound dilution 10 μl of a mix including KRAS mutant protein, SOS1 (final assay concentrations see above) and GDP nucleotide (Sigma G7127; final assay concentration 10 μM) in assay buffer (1×PBS, 0.1% BSA, 0.05% Tween 20) are added into columns 1-24.
After 30 minutes incubation time 5 μl of Alpha Screen bead mix in assay buffer are added into columns 1-23. Bead mix consists of AlphaLISA Glutathione Acceptor Beads (PerkinElmer, Cat No AL109) and AlphaScreen Streptavidin Donor Beads (PerkinElmer Cat No 6760002) in assay buffer at a final assay concentration of 10 μg/ml each.
Plates are kept at room temperature in a darkened incubator. After an additional 60 minutes incubation time the signal is measured in a PerkinElmer Envision HTS Multilabel Reader using the AlphaScreen specs from PerkinElmer.
Each plate contains up to 16 wells of a negative control depending on the dilution procedure (platewise or serial) (DMSO instead of test compound; with KRAS mutant::SOS1 GDP mix and bead mix; column 23) and 16wells of a positive control (DMSO instead of test compound; with KRAS mutant::SOS1 GDP mix w/o bead mix; column 24).
As internal control known inhibitors of KRAS mutant::SOS1 interaction can be measured on each compound plate. […]
A general note: Alpha assays give light when donor and acceptor beads are brought close together.

A further data set relates to SAS cells. Put plainly: SAS CTG proliferation assay (120 h) (HNSCC, wt amplified). The data set is classed as cell-based. The method, then: (§1) SAS cells (JCRB0260) are dispensed into 384-well plates, flat and clear bottom (Greiner, PNr. 781091) at a density of 300 cells per well in 60 μL DMEM:F12 (Gibco 31330-038)+10% Fetal Calf Serum (HyClone, PNr.: SH30084.03) and incubated at 37° C. in a CO2 incubator overnight The next day, compounds (10 mM stock in DMSO) are added with the ECHO acoustic liquid handler system (Beckman Coulter), including DMSO controls. Plates are incubated for 120 h, and cell viability is measured using CellTiter-Glo luminescent cell viability reagent (Promega product code G7570). Viability (stated as percent of control) is defined as relative luminescence units RLU of each well divided by the RLU of cells in DMSO controls.

In another data set the test system is SK-CO-1 cells. The data set is described as follows: SK-CO-1 CTG proliferation assay (120 h) (CRC, G12V). The data set is classed as cell-based. As to conditions: Homo sapiens. The protocol:
as §1, with “SK-CO-1 cells (ATCC” for “SAS cells (JCRB0260)”, “SK-CO-1 cells (ATCC HTB-39) are dispensed” for “SAS cells (JCRB0260) are dispensed”, “density of 500 cells per” for “density of 300 cells per”, “60 μL EMEM (Sigma M5650)+10% Fetal Calf” for “60 μL DMEM:F12 (Gibco 31330-038)+10% Fetal Calf”, “CO2 incubator overnight. The next” for “CO2 incubator overnight The next”

Data set [1] can be described thus: Solubility measurement (DMSO solution precipitation method). As to conditions: aqueous buffer, kinetic from dmso stock. The data set is classed as physicochemical. The protocol: The DMSO solution is diluted with an aqueous medium (McIlvaine buffer with pH=4.5 or 6.8) to a final concentration of 250 μM. After 24 h of shaking at ambient temperature a potentially formed precipitate is removed by filtration. The concentration of the test compound in the filtrate is determined by LC-UV methods by calibrating the signal to the signal of a reference solution with complete dissolution of the test compound in acetonitrile/water (1:1) with known concentration.

Where [2] appears, read: McIlvaine buffer pH 4.5, 24 h, read-out: Solubility [μg/ml] pH 4.5.
The mark [3] stands for this setting: McIlvaine buffer pH 6.8, 24 h, read-out: Solubility [μg/ml] pH 6.8.

This is an account of results in patent publication US20250129095A1, “ANNULATED 2-AMINO-3-CYANO THIOPHENES AND DERIVATIVES FOR THE TREATMENT OF CANCER” (Boehringer Ingelheim Int'l GmbH Corp., priority 2021, published 2025).

Each structure is given as a SMILES string. pIC50: −log10 of the molar value. Converted amounts (≈) assume the structure as drawn. Where two headings read alike, the source gives them in different places.

T1 sequence (P01116 1-169 isoform P01116-2 G12V/C118S): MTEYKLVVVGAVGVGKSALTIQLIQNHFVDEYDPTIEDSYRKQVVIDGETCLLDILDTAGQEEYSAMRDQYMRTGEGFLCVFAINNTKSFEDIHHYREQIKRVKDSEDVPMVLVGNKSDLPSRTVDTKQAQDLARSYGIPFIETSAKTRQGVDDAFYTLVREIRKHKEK

By pIC50 is commonly meant the IC50 on a negative log10 scale, so that one unit is a factor of ten. A low value points to a high IC50. Consider `C[C@H](Oc1cc(Nc2ncco2)nc(-c2noc3c2CCC[C@@]32CCCc3sc(N)c(C#N)c32)n1)[C@@H]1CCCN1C` [II-13], for which the pIC50 was 8.70 at KRAS (G12V)::SOS1, 7.34 in the data set on SAS cells and 7.16 in the data set on SK-CO-1 cells. For the same compound, the solubility at 24 h was greater than 157 µg/mL in data set [1] (setting [2]) and 44 µg/mL (≈ 76.8 µM) in data set [1] (setting [3]).
For `C[C@H](Oc1cc(Oc2cccnc2)nc(-c2onc3c2CCC[C@@]32CCCc3sc(N)c(C#N)c32)n1)[C@@H]1CCCN1C` [Example I-2] the same measures were 9.00, 7.82, 7.64, greater than 125 µg/mL and 89 µg/mL (≈ 152 µM).
As to `C[C@H](Oc1cc(OCC2(N(C)C)COC2)nc(-c2onc3c2CCC[C@@]32CCCc3sc(N)c(C#N)c32)n1)[C@@H]1CCCN1C` [Example I-8], the pIC50 at KRAS (G12V)::SOS1 was 8.52; in the data set on SAS cells, 7.29; in the data set on SK-CO-1 cells, 6.40. The solubility at 24 h in data set [1] (setting [2]) is greater than 143 µg/mL; in data set [1] (setting [3]) it was greater than 125 µg/mL.
